Patent US20170190671A1, “BIS(ARYL)CATECHOL DERIVATIVES AS HERBICIDES” (E I DU PONT DE NEMOURS AND COMPANY, priority 2014, published 2017)

Key:
Assay in all cases: Test C postemergence
Assay type in all cases: in vivo
[1] = tested on: Italian ryegrass (Lolium multiflorum); conditions: Lolium multiflorum, post-emergence, 336 h, Postemergence, scale 0 to 100, read-out: Plant response rating, Ryegrass, Italian
Summary of the method: (§1)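 Seeds in loam-sand soil were treated preemergence, and plants at the 1- to 4-leaf stage (2-18 cm) in peat-based medium were sprayed postemergence, with test chemicals in a non-phytotoxic solvent containing surfactant. After 13-15 days in a greenhouse, response was rated visually against controls from 0 (no effect) to 100 (complete control).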

[2] = tested on: johnsongrass (Sorghum halepense); conditions: Sorghum halepense, post-emergence, 336 h, Postemergence, scale 0 to 100, read-out: Plant response rating, Johnsongrass
Summary of the method: as §1

[3] = tested on: winter wheat (Triticum aestivum); conditions: Triticum aestivum, post-emergence, 336 h, Postemergence, scale 0 to 100, read-out: Plant response rating, Wheat
Summary of the method: as §1

[4] = tested on: pigweed (Amaranthus retroflexus); conditions: Amaranthus retroflexus, post-emergence, 336 h, Postemergence, scale 0 to 100, read-out: Plant response rating, Pigweed
Summary of the method: as §1

[5] = tested on: large (Lg) crabgrass (Digitaria sanguinalis); conditions: Digitaria sanguinalis, post-emergence, 336 h, Postemergence, scale 0 to 100, read-out: Plant response rating, Crabgrass, Large
Summary of the method: as §1

[6] = tested on: morningglory (Ipomoea coccinea); conditions: Ipomoea, post-emergence, 336 h, Postemergence, scale 0 to 100, read-out: Plant response rating, Morningglory
Summary of the method: as §1

[7] = tested on: galium (catchweed bedstraw, Galium aparine); conditions: Galium, post-emergence, 336 h, Postemergence, scale 0 to 100, read-out: Plant response rating, Galium
Summary of the method: as §1

[8] = tested on: kochia (Kochia scoparia); conditions: Bassia scoparia, post-emergence, Postemergence, scale 0 to 100, read-out: Plant response rating, Kochia
Summary of the method: as §1

[9] = tested on: corn (Zea mays); conditions: Zea mays, post-emergence, 336 h, Postemergence, scale 0 to 100
Summary of the method: as §1

[10] = tested on: soybean (Glycine max); conditions: Glycine max, post-emergence, Postemergence, scale 0 to 100, read-out: Plant response rating, Soybean
Summary of the method: as §1

[11] = tested on: wild oat (Avena fatua); conditions: Avena fatua, post-emergence, Postemergence, scale 0 to 100, read-out: Plant response rating, Oat, Wild
Summary of the method: as §1

[12] = tested on: oilseed rape (Brassica napus); conditions: Brassica napus, post-emergence, Postemergence, scale 0 to 100, read-out: Plant response rating, Oilseed Rape
Summary of the method: as §1

[13] = tested on: barnyardgrass (Echinochloa crus-galli); conditions: Echinochloa crus-galli, post-emergence, Postemergence, scale 0 to 100, read-out: Plant response rating, Barnyardgrass
Summary of the method: as §1

[14] = tested on: waterhemp (common waterhemp, Amaranthus rudis); conditions: Amaranthus tuberculatus, post-emergence, Postemergence, scale 0 to 100, read-out: Plant response rating, Waterhemp
Summary of the method: as §1

[15] = tested on: ragweed (common ragweed, Ambrosia elatior); conditions: Ambrosia artemisiifolia, post-emergence, 336 h, Postemergence, scale 0 to 100, read-out: Plant response rating, Ragweed
Summary of the method: as §1

For `N#Cc1cccc(Oc2ncc(Cl)cn2)c1Oc1cnc(Cl)cn1` [Compound 32, 2-[(5-chloro-2-pyrazinyl)oxy]-3-[(5-chloro-2-pyrimidinyl)oxy]benzonitrile], the pest or weed control at 31 g/ha ([1]; 31 g ai/ha) was 5%, the pest or weed control at 62 g/ha ([1]; 62 g ai/ha) was 10% and the pest or weed control at 125 g/ha ([1]; 125 g ai/ha) was 30%. It also gave a pest or weed control at 16 g/ha ([2]; 16 g ai/ha) of 10%, a pest or weed control at 31 g/ha ([2]; 31 g ai/ha) of 10% and a pest or weed control at 62 g/ha ([2]; 62 g ai/ha) of 10%. It also gave a pest or weed control at 125 g/ha ([2]; 125 g ai/ha) of 40%, a plant injury at 31 g/ha ([3]; 31 g ai/ha) of 0% and a plant injury at 62 g/ha ([3]; 62 g ai/ha) of 0%. The plant injury at 125 g/ha ([3]; 125 g ai/ha) was 0%, the pest or weed control at 31 g/ha ([4]; 31 g ai/ha) was 85% and the pest or weed control at 62 g/ha ([4]; 62 g ai/ha) was 90%. The pest or weed control at 125 g/ha ([4]; 125 g ai/ha) was 95%, the pest or weed control at 16 g/ha ([5]; 16 g ai/ha) was 5% and the pest or weed control at 31 g/ha ([5]; 31 g ai/ha) was 10%. For the same compound, the pest or weed control at 62 g/ha ([5]; 62 g ai/ha) was 20%, the pest or weed control at 125 g/ha ([5]; 125 g ai/ha) was 30% and the pest or weed control at 31 g/ha ([6]; 31 g ai/ha) was 90%. It also gave a pest or weed control at 62 g/ha ([6]; 62 g ai/ha) of 95%, a pest or weed control at 125 g/ha ([6]; 125 g ai/ha) of 95% and a pest or weed control at 16 g/ha ([7]; 16 g ai/ha) of 80%. For the same compound, the pest or weed control at 31 g/ha ([7]; 31 g ai/ha) was 80%, the pest or weed control at 62 g/ha ([7]; 62 g ai/ha) was 95% and the pest or weed control at 125 g/ha ([7]; 125 g ai/ha) was 95%. For the same compound, the pest or weed control at 16 g/ha ([8]; 16 g ai/ha) was 90%, the pest or weed control at 31 g/ha ([8]; 31 g ai/ha) was 90% and the pest or weed control at 62 g/ha ([8]; 62 g ai/ha) was 90%. The pest or weed control at 125 g/ha ([8]; 125 g ai/ha) was 90%, the Corn plant response rating (crop injury, 0 = no effect, 100 = complete kill) at 16 g/ha ([9]; 16 g ai/ha) was 20% and the Corn plant response rating (crop injury, 0 = no effect, 100 = complete kill) at 31 g/ha ([9]; 31 g ai/ha) was 20%. For the same compound, the Corn plant response rating (crop injury, 0 = no effect, 100 = complete kill) at 62 g/ha ([9]; 62 g ai/ha) was 25%, the Corn plant response rating (crop injury, 0 = no effect, 100 = complete kill) at 125 g/ha ([9]; 125 g ai/ha) was 25% and the plant injury at 31 g/ha ([10]; 31 g ai/ha) was 65%. The plant injury at 62 g/ha ([10]; 62 g ai/ha) was 85%, the plant injury at 125 g/ha ([10]; 125 g ai/ha) was 85% and the pest or weed control at 31 g/ha ([11]; 31 g ai/ha) was 30%. The pest or weed control at 62 g/ha ([11]; 62 g ai/ha) was 30%, the pest or weed control at 125 g/ha ([11]; 125 g ai/ha) was 30% and the plant injury at 31 g/ha ([12]; 31 g ai/ha) was 80%. It also gave a plant injury at 62 g/ha ([12]; 62 g ai/ha) of 85%, a plant injury at 125 g/ha ([12]; 125 g ai/ha) of 85% and a pest or weed control at 16 g/ha ([13]; 16 g ai/ha) of 10%. It also gave a pest or weed control at 31 g/ha ([13]; 31 g ai/ha) of 20%, a pest or weed control at 62 g/ha ([13]; 62 g ai/ha) of 20% and a pest or weed control at 125 g/ha ([13]; 125 g ai/ha) of 30%. The pest or weed control at 31 g/ha ([14]; 31 g ai/ha) was 85%, the pest or weed control at 62 g/ha ([14]; 62 g ai/ha) was 85% and the pest or weed control at 125 g/ha ([14]; 125 g ai/ha) was 95%. It also gave a pest or weed control at 31 g/ha ([15]; 31 g ai/ha) of 55%, a pest or weed control at 62 g/ha ([15]; 62 g ai/ha) of 80% and a pest or weed control at 125 g/ha ([15]; 125 g ai/ha) of 80%.
